Data published in patent US12268777B2, “Compositions and methods for treating eosinophilic disorders” (The Regents of the University of California, priority 2019, dated 2025).

How the values were obtained:
[1] = tested on: EoE-derived primary esophageal fibroblasts; experiment: Western immunoblot of pro-fibrotic protein expression in EoE-derived esophageal fibroblasts; format: cell-based, human
Method: Reagents, human esophageal tissues, and primary human esophageal fibroblast isolation TGF-β1 (5 ng/mL; R&D Systems, Minneapolis, MN), rosiglitazone (20 μM; Abcam, Boston, MA), pioglitazone (20 μM; Sigma-Aldrich, St. Louis, MO), budesonide (0.1 μM; St. Louis, MO), and IL-4 (10 ng/mL; R&D Systems, Minneapolis, MN) were used in cell culture experiments. […] Active EoE was defined as greater than or equal to 15 eosinophils per hpf. Human organ transplant donor esophagi served as normal controls and were provided by the National Disease Research Interchange and the Arkansas Regional Organ Recovery Agency Control. […]
Adherent cells were washed with ice-cold phosphate-buffered saline containing 1 mM sodium orthovanadate (Na3VO4) and lysed in ice-cold RIPA lysis buffer freshly prepared and supplemented with 1 mM Na3VO4, complete protease inhibitor cocktail, and 2 mM phenylmethylsulfonyl fluoride. […] Equivalent amounts of total proteins were loaded into each well and electrophoresed on NuPAGE 4-12% Bis-Tris gels (Life Technologies, Grand Island, NY), transferred to polyvinylidene difluoride membranes, blocked with 5% bovine serum albumin, incubated with primary antibodies overnight (1:1,000) at 4° C., detected using species-appropriate horseradish peroxidase-conjugated secondary antibodies, and quantified as previously described (Rawson et al., J. Allergy Clin. Immunol., 138:791-800, 2016).

[2] = in vivo; cited from earlier work
[3] = tested on: nonalcoholic steatohepatitis (NASH); settings: compared to placebo; cited from earlier work
[4] = tested on: normal esophageal fibroblasts; experiment: Western immunoblot of pro-fibrotic protein expression in normal esophageal fibroblasts; format: cell-based, human; settings: 20 μM, N=3
Method: Cell culture and stimulation.
Western immunoblot analysis. Adherent cells were washed with ice-cold phosphate-buffered saline containing 1 mM sodium orthovanadate (Na3VO4) and lysed in ice-cold RIPA lysis buffer freshly prepared and supplemented with 1 mM Na3VO4, complete protease inhibitor cocktail, and 2 mM phenylmethylsulfonyl fluoride. Whole cell lysates were centrifuged at 14,000 g for 15 minutes at 4° C.

[5] = tested on: EoE-derived primary esophageal fibroblasts; experiment: qPCR of pro-fibrotic gene expression in EoE-derived esophageal fibroblasts stimulated with TGF-β1; settings: at the concentrations used, up to 20 μM
Method: Reagents, human esophageal tissues, and primary human esophageal fibroblast isolation TGF-β1 (5 ng/mL; R&D Systems, Minneapolis, MN), rosiglitazone (20 μM; Abcam, Boston, MA), pioglitazone (20 μM; Sigma-Aldrich, St. Louis, MO), budesonide (0.1 μM; St. Louis, MO), and IL-4 (10 ng/mL; R&D Systems, Minneapolis, MN) were used in cell culture experiments.
Cell culture and stimulation. Human esophageal fibroblast cells were matched as closely as possible for sex, race, and passage. At sub-confluence, cells were serum starved overnight and treated with a TZD, budesonide, a combination, or vehicle for 2-3 hours followed by incubation with TGF-β1 or vehicle.
Preparation of total RNA and cDNA and quantitative PCR. Total RNA from fibroblast cultures was extracted using RNA STAT-60 (Tel-Test, Inc., Friendswood, TX) protocol, and oligo(dT)-primed cDNA was synthesized as previously described using the Qiagen RT-PCR kit and manufacturer's instructions. Quantitative real-time PCR (qPCR) primers are listed in Table 3; qPCR was carried out as previously described using the appropriate gene-specific primers, and relative gene expression was calculated using the method, with glyceraldehyde 3-phosphate dehydrogenase (gapdh) as the housekeeping gene (Rawson et al., J. Allergy Clin. Immunol., 138:791-800, 2016).

Compound	TGFβ1-induced protein expression of collagen-1α1 ([1]; EoE fibroblasts from 2 patients, budesonide 0.1 μM)	cardiac effect [2]	drug-related adverse events [3]	tolerability [3]	TGF-β1-induced protein expression of collagen-1α1 [4]	TGF-β1-induced protein expression of α-sma [4]	basal protein expression of α-sma ([1]; EoE fibroblasts, 20 μM)	toxicity (housekeeper gene expression, responses in normal fibroblasts) [5]
CCCC1O[C@@H]2C[C@H]3[C@@H]4CCC5=CC(=O)C=C[C@]5(C)[C@H]4[C@@H](O)C[C@]3(C)[C@]2(C(=O)CO)O1 (stereo partly drawn) [budesonide, 16,17-(butylidenebis(oxy))-11,21-dihydroxy-, (11-β,16-α)-pregna-1,4-diene-3,20-dione]	no effects	–	–	–	–	–	–	–
CCc1ccc(CCOc2ccc(CC3SC(=O)NC3=O)cc2)nc1 (stereo not drawn) [pioglitazone]	–	cardioprotective effect	no major drug-related adverse events	well tolerated	–	–	–	–
CN(CCOc1ccc(CC2SC(=O)NC2=O)cc1)c1ccccn1 (stereo not drawn) [rosiglitazone]	–	myocardial infarction risk was subsequently disproven	–	–	did not inhibit	did not inhibit	did not inhibit	not due to toxicity
